Laboratory results: patent publication US20240261244A1, “METHODS FOR TREATING VIRAL INFECTIONS” (Daarsh Innovations, Inc., priority 2023, published 2024)

System: SARS Cov-2 virus
Format: cell-based
Conditions: 90 μL test solution + 10 μL virus (about 10^5 PFU/ml), 3 minutes contact at room temperature; plaque assay on Vero E6 cells

O=C(O)CN(CCN(CC(=O)O)CC(=O)O)CC(=O)O [EDTA 5%, ethylenediaminetetraacetic acid]
Residual Viral Load (Log PFU/0.1 ml): 3.40 Log PFU/0.1 ml
